From patent publication US8669272B2, “2,5-disubstituted piperidine orexin receptor antagonists” (Merck Sharp & Dohme Corp., priority 2008, dated 2014)

Legend:
orexin-1 receptor (OX1R) = target: T1, orexin-1 receptor (OX1R) (Homo sapiens, UniProt O43613); assay: radioligand binding assay, membranes from CHO cells expressing OX1; settings: CHO cell membranes
T1 construct: expressed in transfected cells; host or cells: CHO cells (membranes)
T1 sequence (O43613 1-425): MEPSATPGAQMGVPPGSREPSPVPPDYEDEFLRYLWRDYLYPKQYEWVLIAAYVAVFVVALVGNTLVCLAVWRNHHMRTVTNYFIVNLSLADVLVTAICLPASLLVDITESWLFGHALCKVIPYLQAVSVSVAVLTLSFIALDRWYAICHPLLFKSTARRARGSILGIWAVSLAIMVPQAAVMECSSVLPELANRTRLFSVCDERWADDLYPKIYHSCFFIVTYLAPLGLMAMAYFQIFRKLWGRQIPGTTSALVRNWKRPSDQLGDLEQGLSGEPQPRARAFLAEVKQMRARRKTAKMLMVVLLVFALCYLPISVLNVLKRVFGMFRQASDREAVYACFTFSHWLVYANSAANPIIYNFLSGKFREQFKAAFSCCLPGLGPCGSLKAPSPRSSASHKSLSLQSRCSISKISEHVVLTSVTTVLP
Protocol: (§1) The utility of the compounds in accordance with the present invention as orexin receptor OX1R and/or OX2R antagonists may be readily determined without undue experimentation by methodology well known in the art, including the “FLIPR Ca^2+ Flux Assay” (Okumura et al., Biochem. Biophys. Res. Comm. 280:976-981, 2001). In a typical experiment the OX1 and OX2 receptor antagonistic activity of the compounds of the present invention was determined in accordance with the following experimental method. For intracellular calcium measurements, Chinese hamster ovary (CHO) cells expressing the rat OX1 receptor or the human OX2 receptor, are grown in Iscove's modified DMEM containing 2 mM L-glutamine, […], 1% hypoxanthine-thymidine supplement, 100 U/ml penicillin, 100 ug/ml streptomycin and 10% heat-inactivated fetal calf serum (FCS). The cells are seeded at 20,000 cells/well into Becton-Dickinson black 384-well clear bottom sterile plates coated with poly-D-lysine. All reagents were from GIBCO-Invitrogen Corp. The seeded plates are incubated overnight at 37° C. and 5% CO2. Ala-6,12 human orexin-A as the agonist is prepared as a 1 mM stock solution in 1% bovine serum albumin (BSA) and diluted in assay buffer (HBSS containing 20 mM HEPES, 0.1% BSA and 2.5 mM probenecid, pH7.4) for use in the assay at a final concentration of 70 pM. Test compounds are prepared as 10 mM stock solution in DMSO, then diluted in 384-well plates, first in DMSO, then assay buffer. On the day of the assay, cells are washed 3 times with 100 ul assay buffer and then incubated for 60 min (37° C., 5% CO2) in 60 ul assay buffer containing 1 uM Fluo-4AM ester, 0.02% pluronic acid, and 1% BSA. The dye loading solution is then aspirated and cells are washed 3 times with 100 ul assay buffer. 30 ul of that same buffer is left in each well. Within the Fluorescent Imaging Plate Reader (FLIPR, Molecular Devices), test compounds are added to the plate in a volume of 25 ul, incubated for 5 min and finally 25 ul of agonist is added. Fluorescence is measured for each well at 1 second intervals for 5 minutes and the height of each fluorescence peak is compared to the height of the fluorescence peak induced by 70 pM Ala-6,12 orexin-A with buffer in place of antagonist. […] Alternatively, compound potency can be assessed by a radioligand binding assay (described in Bergman et. al. Bioorg. Med. Chem. Lett. 2008, 18, 1425-1430) in which the inhibition constant (Ki) is determined in membranes prepared from CHO cells expressing either the orexin-1 (OX1) or orexin-2 (OX2) receptor. The intrinsic orexin receptor antagonist activity of a compound which may be used in the present invention may be determined by these assays.

orexin-2 receptor (OX2R) = target: T2, orexin-2 receptor (OX2R) (Homo sapiens, UniProt O43614); assay: radioligand binding assay, membranes from CHO cells expressing OX2; settings: CHO cell membranes
T2 construct: expressed in transfected cells; host or cells: CHO cells (membranes)
T2 sequence (O43614 1-444): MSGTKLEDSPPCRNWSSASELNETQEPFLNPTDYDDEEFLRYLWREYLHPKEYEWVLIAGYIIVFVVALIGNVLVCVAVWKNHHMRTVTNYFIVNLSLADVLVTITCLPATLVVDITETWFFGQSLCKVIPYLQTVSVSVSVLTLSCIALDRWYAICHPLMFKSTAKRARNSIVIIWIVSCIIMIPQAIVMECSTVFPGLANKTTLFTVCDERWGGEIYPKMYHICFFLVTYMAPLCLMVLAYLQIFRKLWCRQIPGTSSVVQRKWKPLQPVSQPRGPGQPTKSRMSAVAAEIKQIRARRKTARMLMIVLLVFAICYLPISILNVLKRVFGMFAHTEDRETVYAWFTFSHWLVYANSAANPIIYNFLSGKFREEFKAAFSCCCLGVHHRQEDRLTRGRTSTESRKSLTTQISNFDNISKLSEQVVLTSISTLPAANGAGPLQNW
Protocol: as §1

Row | SMILES | Ki (orexin-1 receptor (OX1R)) | Ki (orexin-2 receptor (OX2R))
1 | Cc1ccc(-n2nccn2)c(C(=O)N2C[C@H](CC(=O)N3CCCc4ccccc43)CC[C@H]2C)c1 [C-6, 1-({(3S,6R)-6-methyl-1-[5-methyl-2-(2H-1,2,3-triazol-2-yl)benzoyl]piperidin-3-yl}acetyl)-1,2,3,4-tetrahydroquinoline] | 95 nM | 6.9 nM
2 | Cc1ccc(-n2nccn2)c(C(=O)N2C[C@H](COc3cccc(F)c3)CC[C@H]2C)c1 [A-9, (2R,5R)-5-[(3-fluorophenoxy)methyl]-2-methyl-1-[5-methyl-2-(2H-1,2,3-triazol-2-yl)benzoyl]piperidine] | 0.86 nM | 0.36 nM
3 | Cc1ccc(-n2nccn2)c(C(=O)N2C[C@H](Cc3nc4ccccc4n3C)CC[C@H]2C)c1 [C-2, 1-methyl-2-({(3S,6R)-6-methyl-1-[5-methyl-2-(2H-1,2,3-triazol-2-yl)benzoyl]piperidin-3-yl}methyl)-1H-benzimidazole] | 4.5 nM | 4.6 nM
4 | Cc1ccc(-n2nccn2)c(C(=O)N2C[C@H](COc3nccc4ccccc34)CC[C@H]2C)c1 [A-15, 1-({(3R,6R)-6-methyl-1-[5-methyl-2-(2H-1,2,3-triazol-2-yl)benzoyl]piperidine-3-yl}methoxy)isoquinoline] | 2.7 nM | 0.2 nM
